Laboratory results reported in patent US6906068B1, “Substituted polycyclic aryl and heteroaryl 1,2,4 - triazinones useful as anticoagulants” (Pharmacia Corporation, priority 1999, dated 2005).

What was measured:
Format in all cases: biochemical
[1] = biological target: T1, TF-VIIa (recombinant soluble tissue factor and recombinant human factor VIIa) (Homo sapiens, UniProt P08709); assay: TF-VIIa Assay
T1 construct: conversion of coagulation factor VII to VIIa by Xa; purchased American Diagnostica, Greenwich Conn; host or cells: factor VIIa purchased; soluble TF made in house in E. coli
T1 sequence (P08709 213-466 limits assumed): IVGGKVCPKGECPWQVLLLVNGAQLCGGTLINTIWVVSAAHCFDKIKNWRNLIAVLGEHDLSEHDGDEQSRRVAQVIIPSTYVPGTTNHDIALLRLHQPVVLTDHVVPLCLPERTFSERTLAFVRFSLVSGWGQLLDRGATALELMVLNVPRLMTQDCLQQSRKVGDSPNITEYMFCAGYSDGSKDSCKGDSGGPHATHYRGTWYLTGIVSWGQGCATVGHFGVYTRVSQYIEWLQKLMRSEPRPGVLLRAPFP
T1 sequence (P08709 61-212 partner limits assumed): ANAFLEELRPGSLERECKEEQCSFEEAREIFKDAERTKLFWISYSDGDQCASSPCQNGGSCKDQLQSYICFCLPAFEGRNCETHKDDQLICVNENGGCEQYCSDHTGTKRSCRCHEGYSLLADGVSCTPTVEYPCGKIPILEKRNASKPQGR
T1 sequence (P13726 33-251 partner limits assumed): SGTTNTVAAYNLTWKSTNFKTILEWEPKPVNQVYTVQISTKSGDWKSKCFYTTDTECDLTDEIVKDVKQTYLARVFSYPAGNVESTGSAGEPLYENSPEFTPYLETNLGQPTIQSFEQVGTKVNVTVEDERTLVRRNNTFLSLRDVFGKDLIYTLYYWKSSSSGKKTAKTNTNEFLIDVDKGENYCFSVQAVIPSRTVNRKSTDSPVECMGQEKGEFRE
Description: In this assy 100 nM recombinant soluble tissue factor and 2 nM recombinant human factor VIIa are added to a 96-well assay plate containing 0.4 mM of the substrate, N-Methylsulfonyl-D-phe-gly-arg-p-nitroaniline and either inhibitor or buffer (5 mM CaCl2, 50 mM Tris-HCl, pH 8.0, 100 mM NaCl, 0.1% BSA). The reaction, in a final volume of 100 ul is measured immediately at 405 nm to determine background absorbance. The plate is incubated at room temperature for 60 min, at which time the rate of hydrolysis of the substrate is measured by monitoring the reaction at 405 nm for the release of p-nitroaniline. Percent inhibition of TF-VIIa activity is calculated from OD405 nm value from the experimental and control sample.
(§1) Recombinant soluble TF, consisting of amino acids 1-219 of the mature protein sequence was expressed in E. coli and purified using a Mono Q Sepharose FPLC. Recombinant human VIIa was purchased from American Diagnostica, Greenwich Conn. and chromogenic substrate N-Methylsulfonyl-D-phe-gly-arg-p-nitroaniline was prepared by American Peptide Company, Inc., Sunnyvale, Calif. Factor Xa was obtained from Enzyme Research Laboratories, South Bend Ind., thrombin from Calbiochem, La Jolla, Calif., and trypsin and L-BAPNA from Sigma, St. Louis Mo. The chromogenic substrates S-2765 and S-2238 were purchased from Chromog nix, Sweden.

[2] = biological target: T2, trypsin, type IX from porcine pancreas (Sus scrofa, UniProt P00761); assay: Trypsin Assay; details: read-out: Trpysin II IC50
T2 construct: purchased Sigma, St. Louis Mo. type IX; host or cells: porcine pancreas
T2 sequence (P00761 9-231): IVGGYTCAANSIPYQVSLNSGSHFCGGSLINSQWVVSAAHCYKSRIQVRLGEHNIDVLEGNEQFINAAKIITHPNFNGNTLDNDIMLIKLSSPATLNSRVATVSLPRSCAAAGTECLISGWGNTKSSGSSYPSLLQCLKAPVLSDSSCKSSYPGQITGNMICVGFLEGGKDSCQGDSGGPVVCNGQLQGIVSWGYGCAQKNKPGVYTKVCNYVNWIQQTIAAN
Description: 5 ug/ml trypsin, type IX from porcine pancreas and 0.375 mM N-α-Benzoyl-L-arginine-p-nitroanilide (L-BAPNA) are added to a 96-well assay plate containing either inhibitor or buffer (50 mM Tris-HCl, pH 8.0, 100 mM NaCl, 0.1% BSA). The reactions, in a final volume of 100 ul are measured immediately at 405 nm to determine background absorbance. The plate is incubated at room temperature for 60 min, at which time the rate of hydrolysis of the substrate is measured by monitoring the reaction at 405 nm for the release of p-nitroaniline. Percent inhibition of trypsin activity is calculated from OD405 nm value from the experimental and control sample.
as §1

human thrombin = human thrombin (Homo sapiens, UniProt P00734); assay: Thrombin Assay; details: @ 30 uM
human factor Xa = biological target: T3, human factor Xa (Homo sapiens, UniProt P00742); assay: Xa Assay; details: @ 30 uM
T3 construct: purchased Enzyme Research Laboratories, South Bend Ind
T3 sequence (P00742 235-488 limits assumed): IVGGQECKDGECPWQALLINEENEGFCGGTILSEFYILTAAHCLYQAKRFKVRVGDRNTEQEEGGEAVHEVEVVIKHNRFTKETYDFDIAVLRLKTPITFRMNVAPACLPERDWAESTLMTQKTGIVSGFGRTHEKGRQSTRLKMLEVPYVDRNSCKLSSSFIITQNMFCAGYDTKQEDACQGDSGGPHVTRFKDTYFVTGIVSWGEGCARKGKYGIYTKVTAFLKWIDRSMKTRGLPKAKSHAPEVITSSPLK
T3 sequence (P00742 41-179 partner limits assumed): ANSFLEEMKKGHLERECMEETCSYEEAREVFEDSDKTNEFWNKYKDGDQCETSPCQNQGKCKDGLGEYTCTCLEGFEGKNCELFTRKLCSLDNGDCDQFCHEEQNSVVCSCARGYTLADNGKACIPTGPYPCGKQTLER
Description: 0.3 nM human factor Xa and 0.15 mM N-α-Benzyloxycarbonyl-D-arginyl-L-glycyl-L-arginine-p-nitroaniline-dihydrochloride (S-2765) are added to a 96-well assay plate containing either inhibitor or buffer (50 mM Tris-HCl, pH 8.0, 100 mM NaCl, 0.1% BSA). The reaction, in a final volume of 100 ul is measured immediately at 405 nm to determine background absorbance. The plate is incubated at room temperature for 60 min, at which time the rate of hydrolysis of the substrate is measured by monitoring the ieaction at 405 nm for the release of p-nitroaniline. Percent inhibition of Xa activity is calculated from OD405 nm value from the experimental and control sample.
as §1

| IC50 [1] [µM] | IC50 [2] [µM] | Factor Xa percent inhibition (human factor Xa) [% @ 30 uM] | Compound | Thrombin II percent inhibition (human thrombin) |
| --- | --- | --- | --- | --- |
| > 30 | > 30 |  | N=C(N)c1cccc(CNC(=O)Cn2c(-c3ccccc3)ncc(NS(=O)(=O)Cc3ccccc3)c2=O)c1 [Example 2] |  |
|  |  | 33 | CC(C)Nc1cnc(-c2cccnc2)n(CC(=O)NCc2ccc(C(=N)N)cc2)c1=O [Example 7] |  |
|  |  | 15 | N=C(N)c1ccc(CNC(=O)Cn2c(-c3cccc(N)c3)ncc(NC3CCC3)c2=O)cc1 [Example 8] | 42% @ 30 uM |

| Compound | IC50 [1] [µM] | IC50 [2] [µM] | Factor Xa percent inhibition (human factor Xa) [% @ 30 uM] | Thrombin II percent inhibition (human thrombin) |
| --- | --- | --- | --- | --- |
| CC(C)Nc1cnc(-c2cccc(N)c2)n(CC(=O)NCc2ccc(C(=N)N)cc2)c1=O [Example 6] |  |  | 33 | 43% @ 30 um |
